Measurements from PubChem BioAssay (NCI).
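Tested at 5 concentrations; 48 h exposure; 96-well plates; endpoints linearly interpolated, else capped at highest concentration. Definition used: TGI = concentration required for complete inhibition of growth.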

Legend:
Assay in all cases: inhibition of tumour cell growth, NCI panel, 48 h
HCT-15 colon = test system: HCT-15 colon
MOLT-4 leukemia = test system: MOLT-4 leukemia
HOP-92 NSCLC = test system: HOP-92 NSCLC
A549 NSCLC = test system: A549 NSCLC
U251 CNS = test system: U251 CNS
A498 renal = test system: A498 renal
SNB-78 CNS = test system: SNB-78 CNS
CCRF-CEM leukemia = test system: CCRF-CEM leukemia
DMS 273 small cell lung = test system: DMS 273 small cell lung
KM12 colon = test system: KM12 colon
SNB-19 CNS = test system: SNB-19 CNS
SK-OV-3 ovarian = test system: SK-OV-3 ovarian
SN12C renal = test system: SN12C renal
DMS 114 small cell lung = test system: DMS 114 small cell lung
SK-MEL-2 melanoma = test system: SK-MEL-2 melanoma
HT29 colon = test system: HT29 colon
XF 498 CNS = test system: XF 498 CNS
DLD-1 colon = test system: DLD-1 colon
SF-268 CNS = test system: SF-268 CNS
HOP-18 NSCLC = test system: HOP-18 NSCLC

| Structure (SMILES) | TGI (HCT-15 colon) [µM] | TGI (MOLT-4 leukemia) [µM] | TGI (HOP-92 NSCLC) [µM] | TGI (A549 NSCLC) [µM] | TGI (U251 CNS) [µM] | TGI (A498 renal) [µM] | TGI (SNB-78 CNS) [µM] | TGI (CCRF-CEM leukemia) [µM] | TGI (DMS 273 small cell lung) [µM] | TGI (KM12 colon) [µM] | TGI (SNB-19 CNS) [µM] | TGI (SK-OV-3 ovarian) [µM] | TGI (SN12C renal) [µM] | TGI (DMS 114 small cell lung) [µM] | TGI (SK-MEL-2 melanoma) [µM] | TGI (HT29 colon) [µM] | TGI (XF 498 CNS) [µM] | TGI (DLD-1 colon) [µM] | TGI (SF-268 CNS) [µM] | TGI (HOP-18 NSCLC) [µM] |
| --- | --- | --- | --- | --- | --- | --- | --- | --- | --- | --- | --- | --- | --- | --- | --- | --- | --- | --- | --- | --- |
| CC1C(=O)C(C)C(c2cccs2)N(N=O)C1c1cccs1 (stereo unspecified) | > 100 | > 100 | > 100 | > 100 | > 100 | > 100 | > 100 | > 100 | > 100 | > 100 | > 100 | > 100 | > 100 | > 100 | > 100 | > 100 | > 100 | > 100 | > 100 | – |
| CCCCC(NC(=O)CC)C(=O)O (stereo unspecified) | > 100 | > 100 | > 100 | > 100 | > 100 | > 100 | > 100 | > 100 | > 100 | > 100 | > 100 | > 100 | > 100 | > 100 | > 100 | > 100 | > 100 | > 100 | > 100 | > 100 |
| CN1C[C@H]2[C@@H](C1=O)[C@H](c1ccc([N+](=O)[O-])cc1)ON2C | > 100 | > 100 | > 100 | > 100 | > 100 | – | – | > 100 | – | – | > 100 | > 100 | > 100 | – | > 100 | > 100 | – | – | – | – |
| COc1cc(C2C(Cl)C(=O)N2NC(=O)c2ccc(NC(C)=O)cc2)cc(Br)c1O (stereo unspecified) | – | > 100 | > 100 | > 100 | > 100 | – | – | > 100 | – | > 100 | > 100 | > 100 | – | – | > 100 | > 100 | – | > 100 | > 100 | > 100 |
| COc1ccc2c(C)cc(N/N=C/c3sccc3C)nc2c1 | 20.3 | 48.6 | 47.5 | 29.4 | 51.9 | – | – | > 100 | – | 21.8 | 41.6 | 31.9 | 20.4 | – | 29.8 | 12.5 | – | – | 85.9 | – |
| COc1cc(C2c3cc4c(cc3OC3(O)COC(=O)C23)OCO4)cc(OC)c1OC (stereo unspecified) | > 100 | > 100 | – | > 100 | > 100 | > 100 | > 100 | > 100 | > 100 | – | > 100 | 79 | > 100 | > 100 | > 100 | > 100 | 96.7 | > 100 | > 100 | > 100 |
| Nc1ccc2cc(S(=O)(=O)O)cc(O)c2c1N=Nc1ccc(NC(=O)Nc2ccc(N=Nc3c(N)ccc4cc(S(=O)(=O)O)cc(O)c34)c(S(=O)(=O)O)c2)cc1S(=O)(=O)O | > 100 | > 100 | > 100 | > 100 | > 100 | > 100 | > 100 | > 100 | > 100 | > 100 | – | > 100 | > 100 | > 100 | > 100 | > 100 | > 100 | > 100 | > 100 | > 100 |
| CCOc1ccc(C2=C(Cl)c3cc(OC)c(OC)cc3C2Cl)cc1 (stereo unspecified) | > 100 | 78.4 | 86.5 | – | 39.8 | 90.4 | > 100 | > 100 | > 100 | – | > 100 | > 100 | > 100 | 56.2 | 70.6 | > 100 | 42.9 | > 100 | > 100 | > 100 |
| O=C1ON(Cc2ccccc2)C(c2ccccc2)N1c1ccccc1 (stereo unspecified) | > 100 | > 100 | > 100 | > 100 | > 100 | > 100 | > 100 | > 100 | > 100 | > 100 | > 100 | > 100 | > 100 | > 100 | > 100 | > 100 | > 100 | > 100 | > 100 | > 100 |
